Laboratory results taken from US9302999B2, “Substituted triazoles as herbicides” (E. I. DU PONT DE NEMOURS AND COMPANY, priority 2012, dated 2016).

How the values were obtained:
Assay type in all cases: in vivo
[1] = test system: crabgrass, large (large crabgrass, Digitaria sanguinalis); experiment: Test A pre-/postemergence: crabgrass, large; settings: for Crabgrass, Large plant response rating: Postemergence; for Plant response rating, Crabgrass, Large: Preemergence
Procedure, shortened: (§1)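 Plants in loam–sand blend were treated with test chemicals in non-phytotoxic solvent with surfactant, either as preemergence directed soil spray or postemergence at 2–10 cm, one- to two-leaf stage. After about ten days in greenhouse, injury was rated visually against untreated controls on a 0–100 scale (100 = complete control).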

[2] = test system: foxtail, giant (giant foxtail, Setaria faberii); experiment: Test A pre-/postemergence: foxtail, giant; settings: for Foxtail, Giant plant response rating: Postemergence; for Plant response rating, Foxtail, Giant: Preemergence
Procedure, shortened: as §1

[3] = test system: morningglory (Ipomoea spp.); experiment: Test A pre-/postemergence: morningglory
Procedure, shortened: as §1

[4] = test system: velvetleaf (Abutilon theophrasti); experiment: Test A pre-/postemergence: velvetleaf
Procedure, shortened: as §1

[5] = test system: blackgrass (Alopecurus myosuroides); experiment: Test C pre-/postemergence: blackgrass
Procedure, shortened: (§2)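 Preemergence on seeds in loam/sand, postemergence on 2–18 cm (1–4-leaf) plants in peat-based medium; compounds in non-phytotoxic solvent with surfactant. After 13–15 days in greenhouse, visual rating versus controls, 0 (no effect) to 100 (complete control).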

[6] = test system: bromegrass, downy (downy bromegrass, Bromus tectorum); experiment: Test C pre-/postemergence: bromegrass, downy
Procedure, shortened: as §2

[7] = test system: galium (catchweed bedstraw, Galium aparine); experiment: Test C pre-/postemergence: galium
Procedure, shortened: as §2

[8] = test system: johnsongrass (Sorghum halepense); experiment: Test C pre-/postemergence: johnsongrass
Procedure, shortened: as §2

[9] = test system: morningglory (Ipomoea coccinea); experiment: Test C pre-/postemergence: morningglory
Procedure, shortened: as §2

[10] = test system: nightshade (eastern black nightshade, Solanum ptycanthum); experiment: Test C pre-/postemergence: nightshade; settings: Preemergence
Procedure, shortened: as §2

[11] = 125 g ai/ha, 0 to 100 scale, 0 is no effect, 100 is complete control
[12] = 500 g ai/ha, visual rating on 0 to 100 scale (0 no effect, 100 complete control), approximately ten days
[13] = 125 g ai/ha, 0 to 100 scale where 0 is no effect and 100 is complete control
[14] = 500 g ai/ha, 0 to 100 scale (0 no effect, 100 complete control)
[15] = Postemergence, 125 g ai/ha, 0 to 100 scale, 0 is no effect, 100 is complete control
[16] = Postemergence, 500 g ai/ha, visual rating on 0 to 100 scale (0 no effect, 100 complete control), approximately ten days
[17] = Preemergence, 125 g ai/ha, 0 to 100 scale where 0 is no effect and 100 is complete control
[18] = Preemergence, 500 g ai/ha, 0 to 100 scale (0 no effect, 100 complete control)
[19] = Preemergence, 31 g ai/ha, scale of 0 to 100, 0 is no effect, 100 is complete control
[20] = Preemergence, 62 g ai/ha, scale of 0 to 100, 0 is no effect, 100 is complete control
[21] = Preemergence, 125 g ai/ha, scale 0 to 100, 0 no effect, 100 complete control
[22] = Preemergence, 250 g ai/ha, scale 0 to 100, 0 no effect, 100 complete control
[23] = 62 g ai/ha, scale of 0 to 100, 0 is no effect, 100 is complete control
[24] = 125 g ai/ha, scale 0 to 100, 0 no effect, 100 complete control
[25] = 250 g ai/ha, scale 0 to 100, 0 no effect, 100 complete control
[26] = Postemergence, 31 g ai/ha, scale 0 to 100 (0 no effect, 100 complete control)
[27] = Postemergence, 62 g ai/ha, scale 0 to 100 (0 no effect, 100 complete control)
[28] = Postemergence, 125 g ai/ha, scale 0 to 100, 0 no effect, 100 complete control
[29] = Postemergence, 250 g ai/ha, scale 0 to 100
[30] = Preemergence, 62 g ai/ha, scale 0 to 100, 0 no effect, 100 complete control

Compound: Cc1nn(-c2ccc(F)cc2F)nc1Oc1ccnc(C(F)(F)F)c1 [Compound 146]
- Crabgrass, Large plant response rating [1, 11]: 80
- Crabgrass, Large plant response rating [1, 12]: 90
- Plant response rating, Crabgrass, Large [1, 13]: 100
- Plant response rating, Crabgrass, Large [1, 14]: 100
- Foxtail, Giant plant response rating [2, 11]: 80
- Foxtail, Giant plant response rating [2, 12]: 90
- Plant response rating, Foxtail, Giant [2, 13]: 100
- Plant response rating, Foxtail, Giant [2, 14]: 100
- Plant response rating, Morningglory [3, 15]: 90
- Morningglory plant response rating [3, 16]: 90
- Plant response rating, Morningglory [3, 17]: 10
- Plant response rating, Morningglory [3, 18]: 60
- Plant response rating, Velvetleaf [4, 15]: 70
- Velvetleaf plant response rating [4, 16]: 100
- Plant response rating, Velvetleaf [4, 17]: 10
- Plant response rating, Velvetleaf [4, 18]: 50
- Plant response rating, Blackgrass [5, 19]: 50
- Plant response rating, Blackgrass [5, 20]: 70
- Plant response rating, Blackgrass [5, 21]: 90
- Plant response rating, Blackgrass [5, 22]: 90
- Plant response rating, Bromegrass, Downy [6, 19]: 0
- Plant response rating, Bromegrass, Downy [6, 20]: 0
- Plant response rating, Bromegrass, Downy [6, 21]: 15
- Plant response rating, Bromegrass, Downy [6, 22]: 80
- Plant response rating, Galium [7, 19]: 95
- Plant response rating, Galium [7, 20]: 95
- Plant response rating, Galium [7, 21]: 95
- Plant response rating, Galium [7, 22]: 100
- Plant response rating, Johnsongrass [8, 19]: 5
- Plant response rating, Johnsongrass [8, 20]: 75
- Plant response rating, Johnsongrass [8, 21]: 98
- Plant response rating, Johnsongrass [8, 22]: 100
- Plant response rating, Morningglory [9, 19]: 35
- Plant response rating, Morningglory [9, 20]: 40
- Plant response rating, Morningglory [9, 21]: 45
- Plant response rating, Morningglory [9, 22]: 90
- Plant response rating, Nightshade [10, 23]: 35
- Plant response rating, Nightshade [10, 24]: 90
- Plant response rating, Nightshade [10, 25]: 98

Compound: Cc1nn(-c2ccc(C(F)(F)F)cc2)nc1Oc1ccnc(C(F)(F)F)c1 [Compound 120]
- Crabgrass, Large plant response rating [1, 11]: 80
- Crabgrass, Large plant response rating [1, 12]: 90
- Plant response rating, Crabgrass, Large [1, 13]: 100
- Plant response rating, Crabgrass, Large [1, 14]: 100
- Foxtail, Giant plant response rating [2, 11]: 80
- Foxtail, Giant plant response rating [2, 12]: 80
- Plant response rating, Foxtail, Giant [2, 13]: 100
- Plant response rating, Foxtail, Giant [2, 14]: 100
- Morningglory plant response rating [3, 15]: 90
- Morningglory plant response rating [3, 16]: 100
- Plant response rating, Morningglory [3, 17]: 10
- Plant response rating, Morningglory [3, 18]: 30
- Velvetleaf plant response rating [4, 15]: 50
- Velvetleaf plant response rating [4, 16]: 80
- Plant response rating, Velvetleaf [4, 17]: 40
- Plant response rating, Velvetleaf [4, 18]: 70
- Plant response rating, Blackgrass [5, 26]: 25
- Plant response rating, Blackgrass [5, 27]: 30
- Plant response rating, Blackgrass [5, 28]: 60
- Plant response rating, Blackgrass [5, 29]: 85
- Plant response rating, Blackgrass [5, 19]: 90
- Plant response rating, Blackgrass [5, 30]: 90
- Plant response rating, Blackgrass [5, 21]: 90
- Plant response rating, Blackgrass [5, 22]: 90
- Plant response rating, Bromegrass, Downy [6, 26]: 15
- Plant response rating, Bromegrass, Downy [6, 27]: 15
- Plant response rating, Bromegrass, Downy [6, 28]: 30
- Plant response rating, Bromegrass, Downy [6, 19]: 45
- Plant response rating, Bromegrass, Downy [6, 30]: 85
- Plant response rating, Bromegrass, Downy [6, 21]: 90
- Plant response rating, Bromegrass, Downy [6, 22]: 90
- Plant response rating, Galium [7, 26]: 80
- Plant response rating, Galium [7, 27]: 80
- Plant response rating, Galium [7, 28]: 85
- Plant response rating, Galium [7, 19]: 98
- Plant response rating, Galium [7, 20]: 100
- Plant response rating, Galium [7, 21]: 100
- Plant response rating, Galium [7, 22]: 100
- Plant response rating, Johnsongrass [8, 26]: 0
- Plant response rating, Johnsongrass [8, 27]: 5
- Plant response rating, Johnsongrass [8, 28]: 25
- Plant response rating, Johnsongrass [8, 29]: 45
- Plant response rating, Johnsongrass [8, 19]: 25
- Plant response rating, Johnsongrass [8, 20]: 80
- Plant response rating, Johnsongrass [8, 21]: 95
- Plant response rating, Johnsongrass [8, 22]: 98
- Plant response rating, Morningglory [9, 26]: 60
- Plant response rating, Morningglory [9, 27]: 60
- Plant response rating, Morningglory [9, 28]: 65
- Plant response rating, Morningglory [9, 29]: 98
- Plant response rating, Morningglory [9, 19]: 45
- Plant response rating, Morningglory [9, 20]: 45
- Plant response rating, Morningglory [9, 21]: 45
- Plant response rating, Morningglory [9, 22]: 90
- Plant response rating, Nightshade ([10]; 31 g ai/ha, scale of 0 to 100, 0 is no effect, 100 is complete control): 95
- Plant response rating, Nightshade [10, 23]: 95
- Plant response rating, Nightshade [10, 24]: 95
- Plant response rating, Nightshade [10, 25]: 95
